From patent EP4733303A1, “MUSCARINIC M4 RECEPTOR AGONIST AND USE THEREOF” (Haisco Pharmaceutical Group Co., Ltd., priority 2023, dated 2024)

Molecular target: T1, M4 receptor (Homo sapiens, UniProt P08173)
T1 construct: expressed in transfected cells; host or cells: CHO (M4-CHO cells)
T1 sequence (P08173 1-479): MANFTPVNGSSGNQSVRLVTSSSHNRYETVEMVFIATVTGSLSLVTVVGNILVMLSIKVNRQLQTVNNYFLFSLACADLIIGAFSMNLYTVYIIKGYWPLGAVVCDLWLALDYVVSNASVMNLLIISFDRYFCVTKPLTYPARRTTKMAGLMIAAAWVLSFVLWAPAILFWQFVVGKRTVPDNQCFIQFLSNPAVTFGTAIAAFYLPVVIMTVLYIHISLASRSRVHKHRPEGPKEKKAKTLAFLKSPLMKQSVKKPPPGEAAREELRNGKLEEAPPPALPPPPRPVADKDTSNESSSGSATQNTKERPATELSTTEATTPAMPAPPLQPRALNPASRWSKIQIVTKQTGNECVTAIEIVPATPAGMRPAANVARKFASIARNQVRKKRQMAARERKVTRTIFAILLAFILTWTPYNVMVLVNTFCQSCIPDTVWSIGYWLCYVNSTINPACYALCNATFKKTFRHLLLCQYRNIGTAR
Assay: PAM agonistic activity of compound on M4 receptor (FLIPR Calcium 6 assay in M4-CHO cells)
Type: cell-based
Details: with acetylcholine (Ach), final concentration 3 nM
Description: • 1). Cell plating: M4-CHO cells were digested, collected, and resuspended. After cell counting, the cell suspension was seeded into a 384-well cell plate at a density of: 1.2 × 10^4 cells/25 µL/well. The cell plate was then cultured in a 37°C, 5% CO2 incubator for about 16-20 h. • 2). Day 2: Assay Buffer was prepared according to the instructions of the FLIPR Calcium 6 Assay Kit. Component A (20×) was thawed to room temperature and diluted with the Assay Buffer to prepare a loading buffer (1×), which was stored at room temperature until use. • 3). The culture medium was removed from the cell plate. 40 µL of the loading buffer (1×) was quickly added to each well. The cell plate was then centrifuged and incubated at 37°C in the dark for 120 min. • 4). Working solutions of the positive control compound and the test compounds were prepared. An acetylcholine (Ach) agonist compound solution was prepared (final concentration: 3 nM). The PAM compound and the Ach agonist solution were mixed at a 1 : 1 ratio, and the mixture was transferred into a 384-well compound source plate at 20 µL per well. • 5). The cell plate, the compound source plate, and the pipette tips were placed into the corresponding positions within the FLIPR instrument. 10 µL of the diluted compound from step 4 was added into each experimental well using the FLIPR Tetra. Data was collected at the wavelength of 515 nm-575 nm. • 6). The signal values were plotted against the compound concentrations. Nonlinear regression analysis was performed using GraphPad Prism software for curve fitting and EC50 calculation.
The experimental results are shown in Table 1, where A represents EC50 < […]; B represents 100 nM ≤ EC50 < 500 nM, and C represents 500 nM ≤ EC50. Table 1. Agonistic activity of compounds on M4 receptor

Row | Structure (SMILES) | EC50
1 | Cc1cc(-c2cnn(C)c2)nc2c1CN(C(=O)CC1CN(c3ccnc(Oc4cnn(C)c4)c3)C1)C2 [Compound 171] | < 100 nM
2 | Cc1cc(C)c2c(n1)CN(C(=O)CC1CN(c3ccnc(-c4ccc5ccnn5c4)c3)C1)C2 [Compound 63] | < 100 nM
3 | Cc1coc(-c2cc(N3CC(CC(=O)N4Cc5nc(C)cc(C)c5C4)C3)ccn2)n1 [Compound 78] | < 100 nM
4 | Cc1cc(C)c2c(n1)CN(C(=O)CC1CN(c3ccnc(-n4cnnc4)c3)C1)C2 [Compound 108] | < 100 nM
5 | Cc1cc(C)c2c(n1)CN(C(=O)CC1CN(c3ccnc(O[C@@H]4CCOC4)c3)C1)C2 [Compound 51] | < 100 nM
6 | Cc1ccn(-c2cc(N3CC(CC(=O)N4Cc5nc(C6CCOCC6)cc(C)c5C4)C3)ccn2)n1 [Compound 98] | < 100 nM
7 | Cc1cc(C)c2c(n1)CN(C(=O)CC1CN(c3ccnc(OC4CC4)c3)C1)C2 [Compound 49] | < 100 nM
8 | Cc1cc(=O)n(C)c2c1CN(C(=O)CC1CN(c3ccc4c(c3)CCC4=O)C1)C2 [Compound 131] | < 100 nM
9 | Cc1cc(C2CCOC2)nc2c1CN(C(=O)CC1CN(c3ccnc(-n4ccc(F)n4)c3)C1)C2 (single isomer, unassigned) [Compound 187] | < 100 nM
10 | Cc1c2c(nc3c1CN(C(=O)CC1CN(c4ccc5c(c4)CCC5=O)C1)C3)CCC2 [Compound 94] | < 100 nM
11 | Cc1c2c(n(C)c(=O)c1F)CN(C(=O)CC1CN(c3ccnc(OC4CC(F)(F)C4)c3)C1)C2 [Compound 175] | < 100 nM
12 | Cc1cc(C)c2c(n1)CN(C(=O)CC1CN(c3ccnc(-c4ccsc4)c3)C1)C2 [Compound 1] | < 100 nM
13 | Cn1c2c(c(F)cc1=O)CN(C(=O)CC1CN(c3ccnc(OC4CC(F)(F)C4)c3)C1)C2 [Compound 141] | < 100 nM
